The source of these data is patent US8816082B2, “Heterocyclyl-pyridinyl-based biphosphonic acid, pharmaceutically acceptable salt thereof, composition thereof and method of use thereof” (The Royal Institution for the Advancement of …, priority 2010, dated 2014).

The target in experiment [1] is T1, human farnesyl pyrophosphate synthase (hFPPS) (Homo sapiens, UniProt P14324).
T1 sequence (P14324 1-419): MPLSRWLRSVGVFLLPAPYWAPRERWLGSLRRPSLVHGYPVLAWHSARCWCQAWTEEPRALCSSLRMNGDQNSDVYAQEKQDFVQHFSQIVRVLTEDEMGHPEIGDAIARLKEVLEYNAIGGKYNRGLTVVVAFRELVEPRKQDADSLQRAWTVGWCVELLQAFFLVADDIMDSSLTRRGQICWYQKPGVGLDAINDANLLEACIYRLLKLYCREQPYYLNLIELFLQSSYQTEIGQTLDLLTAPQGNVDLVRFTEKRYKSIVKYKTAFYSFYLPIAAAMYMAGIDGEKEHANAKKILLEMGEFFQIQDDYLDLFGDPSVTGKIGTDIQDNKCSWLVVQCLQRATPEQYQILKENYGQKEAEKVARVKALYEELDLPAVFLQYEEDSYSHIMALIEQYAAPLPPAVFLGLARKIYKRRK
Put plainly: In vitro enzymatic inhibition assay for hFPPS, initial screening conditions (partly purified enzyme, 5 min pre-incubation). The class given is biochemical.

Experiment [2] deals with multiple myeloma JJN3 cells. Put plainly: Anti-proliferation assay (MTT), multiple myeloma JJN3 cells. The class given is cell-based. Conditions: Homo sapiens. How it is done:
(§1) In addition, select compounds were tested in anti-proliferation assays using multiple myeloma JJN3 cells and breast cancer MCF-7 cells. Cells were cultured with either an hFPPS inhibitor (i.e. representative Examples 1 to 42) at increasing concentrations (from 10 nM to 100 μM) or a vehicle control.

For experiment [3], the system named is breast cancer MCF-7 cells. Kind of experiment: Anti-proliferation assay (MTT), breast cancer MCF-7 cells. Type of experiment: cell-based. Conditions: Homo sapiens, MCF7, read-out: % inhibition of breast cancer MCF-7 cell proliferation at 50 μM inhibitor, 24 h, vs vehicle control, averages of four determinations. How it is done:
as §1

Experiment [4] has as its target T2, hFPPS (Homo sapiens, UniProt P14324).
T2 sequence (P14324 1-419): T1 sequence (P14324 1-419)
Put plainly: hFPPS IC50 determination under more optimised conditions (Table 4).

Experiment [5] addresses T2, hFPPS. Put plainly: hFPPS inhibition, high throughput mode at fixed concentration, more optimized assay (purer hFPPS, 10 min pre-incubation). Conditions: read-out: % Inhibition at 1 μM.
Experiment [6] has as its system NCI-H460 cells (lung large cell carcinoma). Kind of experiment: Cell growth inhibition assay (MTT), NCI-H460 cells. The note with it: Homo sapiens, 96 h, 4 days, preliminary data, read-out: EC50 (inhibition of cell proliferation). Type of experiment: cell-based.
The mark [7] stands for this setting: JJN-3, read-out: % inhibition of MM JJN3 cell proliferation at 50 μM inhibitor, 24 h, vs vehicle control, averages of four determinations.
The mark [8] stands for this setting: JJN-3, read-out: % inhibition of MM JJN3 cell proliferation at 50 μM inhibitor, 48 h, vs vehicle control, averages of four determinations.

Where two headings read alike, the source gives them in different places.

The IC50 is the concentration that inhibits the measured activity by half. A low value points to higher potency. Regarding `O=P(O)(O)C(F)(Cc1cncc(-c2ccc3[nH]ncc3c2)c1)P(=O)(O)O` [Compound 7], the values for the IC50 (in experiment [1]; at hFPPS [4]) were 640 nM and 150 nM, respectively. Besides, the inhibition at 50 µM in experiment [2] (setting [7]) came to 28%; in experiment [2] (setting [8]), 19%; in experiment [3] it was 20%.

As for `O=P(O)(O)C(Nc1cccc(-c2ccccc2)n1)P(=O)(O)O` [Compound 12], the inhibition at 1 µM at hFPPS [5] came to 35%.

In the case of `O=P(O)(O)C(Nc1cc(-c2ccc3[nH]ncc3c2)ccn1)P(=O)(O)O` [Compound 14], the inhibition at 1 µM on hFPPS [5] turned out to be 45%.

For the compound `O=P(O)(O)C(Nc1cc(-c2ccc3ccccc3c2)ccn1)P(=O)(O)O` [Compound 26], the inhibition at 1 µM on hFPPS [5] was determined as 65%.

Consider `O=P(O)(O)C(Nc1ncccc1Br)P(=O)(O)O` [Compound 36], for which the inhibition at 50 µM in experiment [2] (setting [7]) stood at 15%; in experiment [2] (setting [8]), 26%; in experiment [3], 25%. The compound also displayed an IC50 against hFPPS [4] of 180 nM.

On to `O=P(O)(O)C(Nc1cc(-c2ccc(Cl)cc2)ccn1)P(=O)(O)O` [Compound 40], for which the inhibition at 1 µM at hFPPS [5] was found to be 90%.

Take `O=P(O)(O)C(Nc1cc(-c2ccc(F)cc2)ccn1)P(=O)(O)O` [Compound 42]: the inhibition at 1 µM on hFPPS [5] is 95%.

Consider `O=P(O)(O)C(O)(Cc1cccnc1)P(=O)(O)O` [Risedronate, reference compound], for which the EC50 in experiment [6] lay within 80000 to 100000 nM. Further, the inhibition at 50 µM in experiment [2] (setting [7]) worked out at 9%; in experiment [2] (setting [8]), 17%; in experiment [3], 16%.
